Results reported in patent publication US9089509B2, “Method of treatment of age-related macular degeneration” (YEDA RESEARCH AND DEVELOPMENT CO., LTD., priority 2006, dated 2015).

Key:
[1] = system: neural stem/progenitor cells (NPCs) co-cultured with microglia; test: Co-culture of GFP-expressing neural progenitor cells with treated microglia, neurogenesis (GFP+/βIII-T+ cells); type: cell-based, mouse
Experimental: Coronal sections (2 mm thick) of tissue containing the subventricular zone of the lateral ventricle were obtained from the brains of adult C57Bl/6J mice. The tissue was minced and then incubated for digestion at 37° C., 5% CO2 for 45 min in Earle's balanced salt solution containing 0.94 mg/ml papain (Worthington, Lakewood, N.J.) and 0.18 mg/ml of L-cysteine and EDTA. After centrifugation at 110×g for 15 min at room temperature, the tissue was mechanically dissociated by pipette trituration. Cells obtained from single-cell suspensions were plated (3500 cells/cm^2) in 75-cm^2 Falcon tissue-culture flasks (BD Biosciences, San Diego, Calif.), in neural stem/progenitor cell (NPC)-culturing medium [Dulbecco's modified Eagles's medium (DMEM)/F12 medium (Gibco/Invitrogen, Carlsbad, Calif.) containing 2 mM L-glutamine, 0.6% glucose, 9.6 μg/ml putrescine, 6.3 ng/ml progesterone, 5.2 ng/ml sodium selenite, 0.02 mg/ml insulin, 0.1 mg/ml transferrin, 2 μg/ml heparin (all from Sigma-Aldrich, Rehovot, Israel), fibroblast growth factor-2 (human recombinant, 20 ng/ml), and epidermal growth factor (human recombinant, 20 ng/ml; both from Peprotech, Rocky Hill, N.J.)]. Spheres were passaged every 4-6 days and replated as single cells. Green fluorescent protein (GFP)-expressing NPCs were obtained as previously described (Pluchino et al., 2003).
Brains from neonatal (P0-P1) C57Bl/6J mice were stripped of their meninges and minced with scissors under a dissecting microscope (Zeiss, Stemi DV4, Germany) in Leibovitz-15 medium (Biological Industries, Kibbutz Beit Ha-Emek, Israel). After trypsinization (0.5% trypsin, 10 min, 37° C./5% CO2), the tissue was triturated. The cell suspension was washed in culture medium for glial cells [DMEM supplemented with 10% fetal calf serum (FCS; Sigma-Aldrich, Rehovot), L-glutamine (1 mM), sodium pyruvate (1 mM), penicillin (100 U/ml), and streptomycin ([…])] and cultured at 37° C./5% CO2 in 75-cm^2 Falcon tissue-culture flasks (BD Biosciences) coated with poly-D-lysine (PDL) (10 mg/ml; Sigma-Aldrich, Rehovot) in borate buffer (2.37 g borax and 1.55 g boric acid dissolved in 500 ml sterile water, pH 8.4) for 1 h, then rinsed thoroughly with sterile, glass-distilled water. Half of the medium was changed after 6 h in culture and every 2nd day thereafter, starting on day 2, for a total culture time of 10-14 days. […]

microglia = test: CD11c expression and morphology in primary culture of mouse microglia; type: cell-based; settings: microglia, 10 ng/ml (FIGS. 8A-8D)
Experimental: Brains from neonatal (P0-P1) C57Bl/6J mice were stripped of their meninges and minced with scissors under a dissecting microscope (Zeiss, Stemi DV4, Germany) in Leibovitz-15 medium (Biological Industries, Kibbutz Beit Ha-Emek, Israel). After trypsinization (0.5% trypsin, 10 min, 37° C./5% CO2), the tissue was triturated. The cell suspension was washed in culture medium for glial cells [DMEM supplemented with 10% fetal calf serum (FCS; Sigma-Aldrich, Rehovot), L-glutamine (1 mM), sodium pyruvate (1 mM), penicillin (100 U/ml), and streptomycin ([…])] and cultured at 37° C./5% CO2 in 75-cm^2 Falcon tissue-culture flasks (BD Biosciences) coated with poly-D-lysine (PDL) (10 mg/ml; Sigma-Aldrich, Rehovot) in borate buffer (2.37 g borax and 1.55 g boric acid dissolved in 500 ml sterile water, pH 8.4) for 1 h, then rinsed thoroughly with sterile, glass-distilled water. Half of the medium was changed after 6 h in culture and every 2nd day thereafter, starting on day 2, for a total culture time of 10-14 days. Microglia were shaken off the primary mixed brain glial cell cultures (150 rpm, 37° C., 6 h) with maximum yields between days 10 and 14, seeded (10^5 cells/ml) onto PDL-pretreated 24-well plates (1 ml/well; Corning, N.Y., N.Y.), and grown in culture medium for microglia [RPMI-1640 medium (Sigma-Aldrich, Rehovot) supplemented with 10% FCS, L-glutamine (1 mM), sodium pyruvate (1 mM), β-mercaptoethanol ([…]), penicillin (100 U/ml), and streptomycin ([…])]. The cells were allowed to adhere to the surface of a PDL-coated culture flask (30 min, 37° C./5% CO2), and non-adherent cells were rinsed off.
Cover slips from co-cultures of NPCs and mouse microglia were washed with PBS, fixed as described above, treated with a permeabilization/blocking solution containing 10% FCS, 2% bovine serum albumin, 1% glycine, and 0.1% Triton X-100 (Sigma-Aldrich, Rehovot), and stained with a combination of mouse anti-[…] (anti-βIII-T) isoform C-terminus antibodies (1:500; Chemicon, Temecula, Calif.), rat anti-CD11b (MAC1; 1:50; BD—Pharmingen, Franklin Lakes, N.J.) and hamster anti-CD11c (1:100; eBioscience, San Diego, Calif.). To capture the microglia FITC- or Cy3-conjugated Bandeiraea simplicifolia isolectin B4 (IB-4; 1:50; Sigma-Aldrich, Rehovot) was used. To detect expression of human Aβ anti-Aβ (human amino-acid residues 1-17) (mouse, clone 6E10; Chemicon) was used.
On the basis of our previous findings, we suspected that the switch from a CD11b^+/CD11c^−/IGF-1^− to a CD11b^+/CD11c^+/IGF-I^+ microglial phenotype in the Cop-1 vaccinated Tg-AD mice might be attributable to IL-4. We examined this possibility in vitro. […] In contrast, the expression of CD11c induced by IL-4 was not transient. Quantification of the ability of IL-4 to induce CD11c expression even after the microglia were pretreated with Aβ is shown in FIG. 4D.
Thus, upregulation of CD11c on bone marrow derived myeloid cells by […] will allow the cells to reach injured sites and induce beneficial effect.

Substance | effect of microglia activated by aggregated Aβ(1-40) on neurogenesis and NPC number ([1]; aggregated Aβ(1-40) 5 μM, 48 h pre-incubation, co-culture 10 days) | time to peak of CD11c upregulation after activation (microglia) [days] | counteracting the negative effect of Aβ-activated microglia on NPC survival and differentiation ([1]; cytokine 10 ng/ml added for 48 h after 48 h aggregated Aβ(1-40) 5 μM) | numbers of GFP+/βIII-T+ cells in co-cultures of NPCs with activated microglia ([1]; microglia activated with 10 ng/ml, co-culture 10 days, vs microglia-free control)
Aβ(1-40): β-amyloid peptide fragment 1-40, aggregated | blocked neurogenesis and decreased the number of NPCs |  |  | 
IFN-γ: recombinant mouse IFN-γ |  | 2 to 3 | failed to reverse their negative effect on neurogenesis | dramatic increase
